Assay results published in US10532987B2, “Compounds and methods for inducing browning of white adipose tissue” (GUANGZHOU INSTITUTES OF BIOMEDICINE AND HEALTH, CHINESE …, priority 2015, dated 2020).

Tested on: Ucp1
Experiment: UCP1 luciferase assay (Ucp1 up-regulation in differentiated inguinal adipocytes of Ucp1-luciferase knock-in mice)
Format: cell-based
Conditions: Mus musculus, Adipocyte, 48 h, 2 days treatment, luciferase activity, read-out: Ucp1 activation fold/corresponding concentration
Method: TEST EXAMPLE 1 UCP1 Luciferase Assay
Evaluating Compounds that Induce Ucp1 Up-Regulation
Ucp1-luciferase knock-in mice will be housed in cages and fed on standard chow diets (the detailed procedures please see reference 14). The 8-week-old mice will be killed by the cervical dislocation and put into 75% alcohol for 5 minutes. The inguinal adipose tissue will be dissected out and transferred to the three 10-cm petri dishes and washed with PBS for three times. The adipose tissue will be dissected and minced on a 10-cm petri dish for several minutes and then pipetted into 20 ml 0.1% collagenase solution in 50 ml conical tubes and digested at 37° C. for 1 hour. Next, 20 ml culture medium will be added to terminate the digestion and centrifuged for 10 minutes at 1000 rpm respectively. The supernatants will be removed and the pellets re-suspended in 10 mL culture medium and plated into 10-cm plates. The cells will be left to adhere to the plates overnight and the culture medium will be changed every other day. The confluent cells will be trypsinized, counted and plated to 24-well plate (5×10^4 cells/well). The cells will be washed and re-fed the next day (as day −2). Two days later (day 0), the cells will usually become confluent and be induced to differentiate with MDIR medium. On day 2, the medium will be changed to IR medium and re-fed every 2 days. Complete differentiation is usually achieved by day 10. On day 10, the medium will be changed to the culture medium of 10% FBS/DMEM with indicated drugs along with the positive and negative controls for 2 days. The media will be removed and the cells washed with 1 ml PBS per well three times. Then 100 μl lysis buffer will be used to lyse the cells at 4° C. for 1 hour. 30 μl culture medium, 30 μl cell lysates and 60 μl Steady-Glo® Reagent were added to a well of 96-well-plate and the luminescence will be measured using a luminometer. The protein concentration will be determined using 20 μl cell lysates and specific activity of luciferase will be tabulated and data analyzed.

SMILES	fold induction at 1 µM	fold induction at 3 µM	other results
COc1ccc(-c2csc(Nc3cc4ccccc4cn3)n2)cc1OC [Compound 6, 4-(3,4-dimethoxyphenyl)-N-(isoquinolin-3-yl)thiazol-2-amine]	1.2	–	–
CN(C)c1ccc(-c2csc(Nc3ccccn3)n2)cc1 [Compound 16, 4-(4-(dimethylamino)phenyl)-N-(pyridin-2-yl)thiazol-2-amine]	–	5.1	–
CC(=O)N1CCC(c2ccc(-c3csc(Nc4ccccn4)n3)cc2)CC1 [Compound 61, 1-(4-(4-(2-(pyridin-2-ylamino)thiazol-4-yl)phenyl)piperidin-1-yl)ethanone]	–	3.2	–
CC(C)Oc1ccc(-c2csc(Nc3ccccn3)n2)cc1 [Compound 42, 4-(4-isopropoxyphenyl)-N-(pyridin-2-yl)thiazol-2-amine]	2	–	–
c1ccc(Nc2nc(-c3ccc(CN4CCOCC4)cc3)cs2)nc1 [Compound 54, 4-(4-(morpholinomethyl)phenyl)-N-(pyridin-2-yl)thiazol-2-amine]	3.9	–	–
O=C(Nc1ccncc1)c1ccc(-c2csc(Nc3ccccn3)n2)cc1 [Compound 65, 4-(2-(pyridin-2-ylamino)thiazol-4-yl)-N-(pyridin-4-yl)benzamide]	–	1.1	–
CCNC(=O)COc1ccc(-c2csc(Nc3ccccn3)n2)cc1 [Compound 47, N-ethyl-2-(4-(2-(pyridin-2-ylamino)thiazol-4-yl)phenoxy)acetamide]	–	2.4	–
Cc1ccc(-c2csc(Nc3ccccn3)n2)cc1C [Compound 80, 4-(3,4-dimethylphenyl)-N-(pyridin-2-yl)thiazol-2-amine]	–	1.5	–
CC(C)NC(=O)Nc1ccc(-c2csc(Nc3ccccn3)n2)cc1 [Compound 37, 1-isopropyl-3-(4-(2-(pyridin-2-ylamino)thiazol-4-yl)phenyl)urea]	–	2	–
CNc1nc(-c2ccc(OC)c(OC)c2)cs1 [Compound 31, 4-(3,4-dimethoxyphenyl)-N-methylthiazol-2-amine]	1.1	–	–
c1ccc(Nc2nc(-c3ccc4c(c3)CCC4)cs2)nc1 [Compound 81, 4-(2,3-dihydro-1H-inden-5-yl)-N-(pyridin-2-yl)thiazol-2-amine]	2	–	–
COc1ccc(-c2csc(Nc3cccnc3)n2)cc1OC [Compound 33, 4-(3,4-dimethoxyphenyl)-N-(pyridin-3-yl)thiazol-2-amine]	–	2	–
COc1ccc(-c2csc(NC(=O)c3ccccc3)n2)cc1OC [Compound 30, N-(4-(3,4-dimethoxyphenyl)thiazol-2-yl)benzamide]	1.1	–	–
c1ccc(-c2csc(Nc3ccccn3)n2)cc1 [Compound 4, 4-phenyl-N-(pyridin-2-yl)thiazol-2-amine]	–	4.1	–
O=C(O)COc1ccc(-c2csc(Nc3ccccn3)n2)cc1 [Compound 45, 2-(4-(2-(pyridin-2-ylamino)thiazol-4-yl)phenoxy)acetic acid]	–	–	fold induction at 0.3 µM: 1.3
N#Cc1ccc(-c2csc(Nc3ccccn3)n2)cc1 [Compound 49, 4-(2-(pyridin-2-ylamino)thiazol-4-yl)benzonitrile]	3.9	–	–
O=C(c1ccc(-c2csc(Nc3ccccn3)n2)cc1)N1CCOCC1 [Compound 52, morpholino(4-(2-(pyridin-2-ylamino)thiazol-4-yl)phenyl)methanone]	5.1	–	–
Brc1ccc(-c2csc(Nc3ccccn3)n2)cc1 [Compound 40, 4-(4-bromophenyl)-N-(pyridin-2-yl)thiazol-2-amine]	–	3	–
O=C(COc1ccc(-c2csc(Nc3ccccn3)n2)cc1)N1CCOCC1 [Compound 46, 1-morpholino-2-(4-(2-(pyridin-2-ylamino)thiazol-4-yl)phenoxy)ethanone]	–	1.7	–

SMILES	fold induction at 1 µM	fold induction at 3 µM	other results
CCOC(=O)[C@@H]1CCCN1C(=O)c1ccc(-c2csc(Nc3ccccn3)n2)cc1 [Compound 67, (S)-ethyl 1-(4-(2-(pyridin-2-ylamino)thiazol-4-yl)benzoyl)pyrrolidine-2-carboxylate]	–	3.1	–
CC(C)NC(=O)c1ccc(-c2csc(Nc3ccccn3)n2)cc1 [Compound 57, N-isopropyl-4-(2-(pyridin-2-ylamino)thiazol-4-yl)benzamide]	–	3.5	–
COc1ccc(-c2csc(Nc3ccccc3)n2)cc1OC [Compound 20, 4-(3,4-dimethoxyphenyl)-N-phenylthiazol-2-amine]	–	3	–
COc1ccc(-c2csc(Nc3ncccc3C)n2)cc1OC [Compound 12, 4-(3,4-dimethoxyphenyl)-N-(3-methylpyridin-2-yl)thiazol-2-amine]	1.2	–	–
c1ccc(Nc2nc(-c3ccc(-c4ccncc4)cc3)cs2)nc1 [Compound 79, N-(pyridin-2-yl)-4-(4-(pyridin-4-yl)phenyl)thiazol-2-amine]	–	1.8	–
COC(=O)c1ccc(-c2csc(Nc3ccccn3)n2)cc1 [Compound 48, methyl 4-(2-(pyridin-2-ylamino)thiazol-4-yl)benzoate]	–	6	–
COc1ccc(-c2csc(Nc3ccccn3)n2)c(OC)c1 [Compound 15, 4-(2,4-dimethoxyphenyl)-N-(pyridin-2-yl)thiazol-2-amine]	–	–	fold induction at 0.3 µM: 1.4
COc1ccc(-c2csc(Nc3cc(C)ccn3)n2)cc1OC [Compound 2, 4-(3,4-dimethoxyphenyl)-N-(4-methylpyridin-2-yl)thiazol-2-amine]	1.1	–	–
c1ccc(Nc2nc(-c3c[nH]c4ccccc34)cs2)nc1 [Compound 7, 4-(1H-indol-3-yl)-N-(pyridin-2-yl)thiazol-2-amine]	–	–	fold induction at 0.3 µM: 1.2
CCC(=O)Nc1ccc(-c2csc(Nc3ccccn3)n2)cc1 [Compound 38, N-(4-(2-(pyridin-2-ylamino)thiazol-4-yl)phenyl)propionamide]	–	5	–
O=C(Nc1ccc(Cl)cc1)c1csc(Nc2ccccn2)n1 [Compound 68, N-(4-chlorophenyl)-2-(pyridin-2-ylamino)thiazole-4-carboxamide]	–	1.3	–
Nc1ccc(-c2csc(Nc3ccccn3)n2)cc1 [Compound 35, 4-(4-aminophenyl)-N-(pyridin-2-yl)thiazol-2-amine]	3.7	–	–
COc1ccc(-c2csc(Nc3cc(Cl)ccn3)n2)cc1OC [Compound 13, N-(4-chloropyridin-2-yl)-4-(3,4-dimethoxyphenyl)thiazol-2-amine]	–	1.6	–
COc1cc(-c2csc(Nc3ccccn3)n2)cc(OC)c1OC [Compound 17, N-(pyridin-2-yl)-4-(3,4,5-trimethoxyphenyl)thiazol-2-amine]	1.9	–	–
COc1ccc(-c2csc(Nc3cccc(C)n3)n2)cc1OC [Compound 10, 4-(3,4-dimethoxyphenyl)-N-(6-methylpyridin-2-yl)thiazol-2-amine]	–	3.8	–
c1ccc(Nc2nc(-c3cccnc3)cs2)nc1 [Compound 9, N-(pyridin-2-yl)-4-(pyridin-3-yl)thiazol-2-amine]	3.6	–	–
c1ccc(CNc2ccc(-c3csc(Nc4ccccn4)n3)cc2)cc1 [Compound 55, 4-(4-(benzylamino)phenyl)-N-(pyridin-2-yl)thiazol-2-amine]	–	2	–
N#Cc1cccc(-c2csc(Nc3ccccn3)n2)c1 [Compound 5, 3-(2-(pyridin-2-ylamino)thiazol-4-yl)benzonitrile]	–	5.4	–
